In patent US7563771B2, “Synthetic single domain polypeptides mimicking apolipoprotein E” (UAB Research Foundation, priority 2002, dated 2009):
Peptide text beside a SMILES is read from it.

How the values were obtained:
[1] = Solubility of peptide and peptide:DMPC complexes
plasma cholesterol [2] = test: Plasma cholesterol after intravenous injection into fasted apo E null mice; type: in vivo
Experimental: The peptides were dissolved in PBS pH=5.0. Control mice (n=5) received PBS pH=5.0. Data shown represent mean±SEM.
Effects on cholesterol levels of peptide Ac-(R)14L-NH2 analog 2 (at 100 μg/mouse), administered intravenously into fasted apo E null mice as free peptide or as peptide:DMPC complexes at two pH levels. n=5 in all cases is shown in FIG. 11. Peptides were dissolved in PBS at the pH shown. Data shown represent mean±SEM.
Blood samples were taken immediately before injection and at 2 minutes and at 5 hours after injection and measured for cholesterol. A control of only PBS was also measured. Total cholesterol in the blood samples was measured, and is expressed in FIG. 4 as mean±SEM. […] However, the reduction in plasma cholesterol was in the lipoproteins, including HDL. […] Feces were collected for 24 hours following injection of 100 μg of Ac-(R)18L-NH2:DMPC complexes (n=2) or PBS (n=5). Fecal sterols were extracted, and total cholesterol was determined manually (Sigma Infinity). […] Total feces were collected from individually-caged mice for 24 hours following intravenous injection of Ac-(R)18L-NH2 into apo E null mice at a dose of 100 μg/mouse. Total 24-hour fecal cholesterol was then calculated. Feces from each mouse were weighed, lyophilized, and then re-weighed. 100 mg dried feces was then homogenized, and total lipids were extracted. The dried extract was resuspended in isopropanol, and cholesterol was measured manually. Data shown in FIG. 6 are mean±SEM for control and mean±range for peptide.
This experiment is carried out to show the usefulness of the peptides of the invention in vivo for lowering serum cholesterol. Peptide or peptide-lipid complexes were administered intravenously to mice. After some time period (as specifically shown in various figures), plasma samples were obtained by performing a retro-orbital bleed of the animals. The samples were analyzed by the column lipoprotein profile as previously described (Garber, D. et al. J. Lipid Res. 2000, 41:1020-1026). Briefly, 5 to 10 μl of the plasma was analyzed using a single superose (Pharmacia, Piscataway, N.J.) column. Immediately following the column run, cholesterol reagent is introduced through a mixing tee, and the eluent:reagent mixture enters a post column reaction coil. Cholesterol content of the reaction mixture is determined at 500 nm spectrophotometrically and the data points are collected into a computer. The resulting profiles are decomposed into component peaks and analyzed for relative area using PeakFit® computer software (SPSS Science, Chicago, Ill.). Absolute cholesterol value for total cholesterol is determined by comparisons with control samples of known values. The results would show a decrease in serum cholesterol in the subjects that received the polypeptides of the invention.

plasma cholesterol [3] = test: Plasma cholesterol in dyslipidemic mouse models; type: in vivo; settings: several dyslipidemic mouse models, dose-dependent manner
Experimental: These studies were carried out to assess the bioactivity of the single domain R-18L peptides in vivo and compare its activity with the known activity of a dual domain Apo-E derived peptide. In this case, the bioactivity refers to the activity of lowering serum cholesterol in a subject (e.g., in a transgenic mouse). In this example, the 18L peptide analogs were administered to dyslipidemic mice.

HepG2 cells = test: Uptake of 125I-LDL and 125I-VLDL by HepG2 cells in presence of peptide; type: cell-based
Experimental: These experiments were performed to test the bioactivity of the R-18L peptide in cell culture. […] Specifically, ^125I-LDL and ^125I-VLDL and the R-18L peptide were incubated with HepG2 cells in vitro for 2 hours to determine the cellular uptake of the iodinated compounds. […] H/H represent uptake of the lipoproteins in cells treated with heparinase/heparitinase. […] In case of VLDL, the peptide-mediated uptake appeared to be predominantly via an HSPG pathway. […] Examples of atherogenic lipoproteins are VLDL and LDL.
This experiment was carried out to follow the events subsequent to the binding of atherogenic lipoproteins to cultured cells. HepG2 cells (obtained from American Type Culture Collection (ATCC), Manassas, Va.) are used for determining peptide-mediated enhanced uptake of LDL or VLDL. Cells are grown in DMEM in six-well plates and used at 75% to 90% confluence. The seeding density of the cells that is used is 1.5-3.0×10^5 cells/ml. Cells are treated with DMEM containing lipoprotein-deficient serum (LPDS) 24 h prior to use to upregulate […] with the indicated concentration (0 to 50 μg of ^125I-LDL) at 4° C. for 2 h in presence or absence of peptides. Nonspecific binding is assessed in the presence of 50-fold excess of unlabelled LDL with or without peptides. After washing with ice-cold PBS, (containing 2 mg/ml BSA) to remove excess labeled lipoproteins, cells are incubated with excess dextran sulfate (4 mg/ml Pharmacia, Mr of 500,000) or heparin (Sigma Chemical Co., St. Louis, Mo., 10 mg/ml) for 1 h to release specifically bound ^125I-LDL. The counts in the dextran sulfate wash reflect the amount of LDL bound to cells. Cells are then washed with PBS and then dissolved in 0.1 N NaOH and a 0.5 ml aliquot of the cells suspension is counted. The counts reflect the amount of LDL internalized. The amount of protein is estimated using the Lowry method. Degradation of LDL is assessed by precipitating ^125I-LDL using 17% […] acid and incubating at 4° C. for 30 min. The precipitate is removed by centrifugation. The supernatant is treated with 10 μl of 40% KI and 40 μl of 10% hydrogen peroxide. The free ^125I is extracted with 2 ml chloroform. The upper aqueous layer is then counted for radioactivity. These counts represent the amount of monoiodi-tyrosine produced by the degradation of apo B in lipoproteins. Cell surface HSPG is removed by treating cells with heparinase and heparitinase (Sigma Chemical Co., St. Louis, Mo.) at a concentration of 3 u/ml of medium for 2 h at 37° C. In all cell experiments an average value of triplicate experiments are considered. Counts are detected inside the cultured cells and it is shown that LDL and VLDL are bound, internalized and degraded in the cultured cells in the presence of the peptide of the invention.

[4] = Toxicity of intravenously administered peptide to mice; type: in vivo; settings: 100 μg/mouse; for toxicity to mice, in words: intravenously
LDL from LDL-R null mice = test: Association of 125I-labelled peptide with plasma lipoproteins (CLiP profile, radioactivity of fractions); type: binding, LDL-R null mouse
Experimental: Peptide [^125I]Ac-(R)18L-NH2 was mixed with plasma from an LDL-R null mouse at a proportion of 100 μg peptide:1 mL plasma. The plasma lipoprotein profile was determined using the CLiP method (Garber and Anantharamaiah, J. Lipid. Res., 2000), and fractions were collected for measurement of radioactivity. Thus, peptide:lipid complexes are good candidates for administration that would result in enhanced uptake of atherogenic lipoproteins. The effect of the single domain peptide of the invention should last longer than any dual domain peptide since lipid-associated peptide is helical and the backbone is not accessible for proteolytic cleavage (degradation). Thus, several slow-release formulations of peptides with lipids are tested to determine the optimal formulation for delivery.

erythrocytes = test: Hemolysis of erythrocytes (hemoglobin content of supernatant, absorbance at 540 nm); type: cell-based
Experimental: This example was performed to test the affect of amino acid residue changes on the lytic nature of peptides of the invention. Lysine residues, which resided on the polar face of the single domain peptide, were substituted with arginine and such altered peptides were tested for lytic ability. Similarly, in other peptides of the invention, lysine residues on the polar face of the single domain peptide of the invention were dimethylated. These altered peptides neutralized the hemolytic property of the 18 L peptide. A suspension of erythrocytes (10^6 cells/ml) in phosphate-buffered saline with and without peptide (10 ml of […] peptide solution) was incubated for 10 min at 37° C. Hemolysis was expressed as hemoglobin content (absorbance at 540 nm) of the supernatant after centrifugation at 16,000×g for 3 min. Hemoglobin content as measured in the presence of 0.1% Triton X-100 was taken as 100% hemolysis.

CC[C@H](C)[C@H](NC(=O)[C@H](Cc1ccccc1)NC(=O)[C@H](CCCNC(=N)N)NC(=O)[C@H](Cc1c[nH]c2ccccc12)NC(=O)[C@@H](NC(=O)[C@H](CO)NC(=O)CNC(=O)[C@H](Cc1ccc(O)cc1)NC(=O)[C@H](Cc1ccccc1)NC(=O)[C@H](CCCNC(=N)N)NC(=O)[C@H](CCCNC(=N)N)NC(C)=O)[C@@H](C)CC)C(=O)N[C@@H](CCCNC(=N)N)C(=O)N[C@@H](C)C(=O)N[C@@H](Cc1ccccc1)C(N)=O [Ac-(R)14L-NH2 analog 2] (Ac-RRFYGSIWRFIRAF-NH2)
solubility ([1]; pH=5.0): freely soluble
solubility ([1]; pH=7.4): only partially soluble
effect of DMPC on the suspension ([1]; pH=7.4, addition of DMPC at a 1:1 ratio (w/w)): completely clarified this suspension

Ac-GIRRFLGSIWRFIRAFYG-NH2 [R-18L]
cholesterol reduction, dose dependency (plasma cholesterol [2]; 50 μg of peptide per mouse, i.v., 5 hours, limited to VLDL and IDL/LDL fractions (FIG. 5)): substantial reduction
reducing plasma cholesterol (plasma cholesterol [2]; 50 μg/mouse, i.v., PBS pH=5.0, fasting apo E null mice (FIG. 10)): effective in reducing plasma cholesterol
duration of plasma cholesterol reduction (plasma cholesterol [2]; 100 μg/mouse i.v. (FIG. 4)): maintained for at least five hours
reduction of plasma cholesterol (plasma cholesterol [2]; 100 μg/mouse i.v., within two minutes, versus basal level (FIG. 4)): approximately 90%
lowering plasma cholesterol in apo E(−) mice compared with dual domain peptide (plasma cholesterol [2]; apo E(−) mice): more effectively than the dual domain peptide
reducing plasma cholesterol (plasma cholesterol [3]): effective in reducing plasma cholesterol
uptake of LDL by HepG2 cells (HepG2 cells; 125I-LDL, 2 hours incubation): effective in enhancing the uptake
uptake of VLDL by HepG2 cells (HepG2 cells; 125I-VLDL, 2 hours incubation): effective in enhancing the uptake
enhanced uptake of VLDL in cells treated with heparinase/heparitinase (H/H) (HepG2 cells; HepG2 cells, H/H treated): completely abrogated
uptake of LDL in cells treated with heparinase/heparitinase (H/H) (HepG2 cells; HepG2 cells, H/H treated): significant enhancement of uptake
toxicity to mice, in words [4]: completely normal
counts per minute in VLDL peak (LDL from LDL-R null mice; FIG. 7, elution volume c. 12 mL): ~50 CPM
counts per minute in LDL peak (LDL from LDL-R null mice; FIG. 7, elution volume c. 16 mL): ~150 CPM
counts per minute in HDL peak (LDL from LDL-R null mice; FIG. 7, elution volume c. 18 mL): ~350 CPM

GIKKFLGSIWKFIKAFVG [18L, reference compound]
hemolysis (lytic) (erythrocytes): 80%
hemolysis / cell lysis, in words (erythrocytes): caused marked hemolysis
mice that died [4]: four out of six
toxicity to mice, in words [4]: highly toxic

GIRRFYGSIWRFIR (Ac-GIRRFYGSIWRFIR-NH2) [Ac-(R)14L-NH2 analog 1]
reducing plasma cholesterol (plasma cholesterol [2]; free peptide, 100 μg/mouse, i.v., PBS pH=5, fasting apo E null mice (FIG. 10)): not effective
